The source made the active and inactive calls. The calls are words filed in the database; no cut-off is given here.
How the values were obtained:
[1] = target: T1, Serine/threonine-protein kinase 4 (Homo sapiens) (UniProt Q13043); assay: Binding affinity to recombinant MST1 (unknown origin) assessed as stabilization by measuring change in melting temperature at 10 uM by SYPRO orange dye based differential scanning fluorimetry assay
T1 sequence (whole entry): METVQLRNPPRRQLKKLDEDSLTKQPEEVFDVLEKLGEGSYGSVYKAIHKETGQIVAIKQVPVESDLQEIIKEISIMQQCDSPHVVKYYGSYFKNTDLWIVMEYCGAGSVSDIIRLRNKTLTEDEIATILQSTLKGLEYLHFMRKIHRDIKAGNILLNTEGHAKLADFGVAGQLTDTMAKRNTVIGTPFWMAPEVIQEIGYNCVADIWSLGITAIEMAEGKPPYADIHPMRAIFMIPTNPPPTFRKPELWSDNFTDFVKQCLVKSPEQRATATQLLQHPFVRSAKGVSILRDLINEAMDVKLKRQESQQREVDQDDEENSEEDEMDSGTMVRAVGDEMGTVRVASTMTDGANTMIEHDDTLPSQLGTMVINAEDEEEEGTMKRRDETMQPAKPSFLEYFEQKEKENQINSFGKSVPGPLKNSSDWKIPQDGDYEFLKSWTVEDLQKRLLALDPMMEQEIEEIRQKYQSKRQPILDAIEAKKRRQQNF

[2] = target: T2, Serine/threonine-protein kinase 3 (Homo sapiens) (UniProt Q13188); assay: Binding affinity to recombinant MST2 (unknown origin) assessed as stabilization by measuring change in melting temperature at 10 uM by SYPRO orange dye based differential scanning fluorimetry assay
T2 sequence (whole entry): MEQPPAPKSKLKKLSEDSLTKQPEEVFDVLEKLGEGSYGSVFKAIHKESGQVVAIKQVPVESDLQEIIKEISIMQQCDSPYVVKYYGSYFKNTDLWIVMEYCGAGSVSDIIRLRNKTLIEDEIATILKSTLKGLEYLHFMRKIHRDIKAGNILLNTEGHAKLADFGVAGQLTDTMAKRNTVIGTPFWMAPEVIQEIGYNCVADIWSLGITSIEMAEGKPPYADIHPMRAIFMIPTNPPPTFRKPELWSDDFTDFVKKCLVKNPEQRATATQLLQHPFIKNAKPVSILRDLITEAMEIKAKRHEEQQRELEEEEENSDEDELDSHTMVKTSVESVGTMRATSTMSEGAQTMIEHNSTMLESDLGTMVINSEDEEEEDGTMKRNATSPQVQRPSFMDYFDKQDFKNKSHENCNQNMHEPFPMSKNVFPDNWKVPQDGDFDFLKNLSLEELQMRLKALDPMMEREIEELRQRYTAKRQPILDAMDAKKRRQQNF

[3] = target: Serine/threonine-protein kinase 24 (Homo sapiens) (UniProt Q9Y6E0); assay: Binding affinity to recombinant MST3 (unknown origin) assessed as stabilization by measuring change in melting temperature at 10 uM by SYPRO orange dye based differential scanning fluorimetry assay
Serine/threonine-protein kinase 24 (Homo sapiens), sequence (Q9Y6E0 whole entry, looked up): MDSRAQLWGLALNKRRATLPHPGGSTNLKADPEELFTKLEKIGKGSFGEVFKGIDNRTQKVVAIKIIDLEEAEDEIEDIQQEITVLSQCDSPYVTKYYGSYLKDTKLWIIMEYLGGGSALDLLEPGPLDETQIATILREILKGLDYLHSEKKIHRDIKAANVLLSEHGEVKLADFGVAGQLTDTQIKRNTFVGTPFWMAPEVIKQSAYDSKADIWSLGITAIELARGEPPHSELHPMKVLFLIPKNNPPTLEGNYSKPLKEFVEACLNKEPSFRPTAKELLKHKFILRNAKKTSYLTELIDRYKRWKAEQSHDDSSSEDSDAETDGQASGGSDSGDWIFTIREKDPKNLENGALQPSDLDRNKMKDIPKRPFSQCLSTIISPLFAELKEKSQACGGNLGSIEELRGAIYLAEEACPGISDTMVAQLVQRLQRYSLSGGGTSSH

[4] = target: Serine/threonine-protein kinase 26 (Homo sapiens) (UniProt Q9P289); assay: Binding affinity to recombinant MST4 (unknown origin) assessed as stabilization by measuring change in melting temperature at 10 uM by SYPRO orange dye based differential scanning fluorimetry assay
Serine/threonine-protein kinase 26 (Homo sapiens), sequence (Q9P289 2-416 limits assumed): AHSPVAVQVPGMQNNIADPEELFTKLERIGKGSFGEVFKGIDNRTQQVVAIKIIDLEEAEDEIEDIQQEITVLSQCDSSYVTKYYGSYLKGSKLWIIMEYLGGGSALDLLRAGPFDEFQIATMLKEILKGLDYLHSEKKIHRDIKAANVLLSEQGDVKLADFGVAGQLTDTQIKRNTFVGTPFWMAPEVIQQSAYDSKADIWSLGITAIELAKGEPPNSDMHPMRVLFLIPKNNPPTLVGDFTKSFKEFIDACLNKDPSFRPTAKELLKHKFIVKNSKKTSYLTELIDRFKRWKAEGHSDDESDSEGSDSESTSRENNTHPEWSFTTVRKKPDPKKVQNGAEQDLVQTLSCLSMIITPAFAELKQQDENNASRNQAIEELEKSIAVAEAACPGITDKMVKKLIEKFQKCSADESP

[5] = target: Serine/threonine-protein kinase PAK 1 (Homo sapiens) (UniProt Q13153); assay: Binding affinity to recombinant PAK1 (unknown origin) assessed as stabilization by measuring change in melting temperature at 10 uM by SYPRO orange dye based differential scanning fluorimetry assay
Serine/threonine-protein kinase PAK 1 (Homo sapiens), sequence (Q13153 whole entry): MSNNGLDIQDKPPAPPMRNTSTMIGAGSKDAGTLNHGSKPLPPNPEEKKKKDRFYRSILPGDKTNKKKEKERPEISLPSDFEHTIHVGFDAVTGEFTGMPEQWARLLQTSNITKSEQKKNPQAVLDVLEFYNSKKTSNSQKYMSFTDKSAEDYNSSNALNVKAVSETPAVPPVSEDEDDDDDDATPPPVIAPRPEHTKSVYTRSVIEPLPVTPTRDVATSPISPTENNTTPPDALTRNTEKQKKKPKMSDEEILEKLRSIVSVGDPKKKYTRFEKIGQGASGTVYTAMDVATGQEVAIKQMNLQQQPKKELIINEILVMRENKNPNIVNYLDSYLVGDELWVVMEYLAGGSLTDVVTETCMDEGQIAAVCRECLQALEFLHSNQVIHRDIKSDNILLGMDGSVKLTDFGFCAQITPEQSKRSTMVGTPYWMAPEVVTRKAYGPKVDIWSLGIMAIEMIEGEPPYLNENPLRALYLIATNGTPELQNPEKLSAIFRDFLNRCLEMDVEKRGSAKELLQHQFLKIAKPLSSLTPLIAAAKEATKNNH

[6] = target: Mitogen-activated protein kinase kinase kinase 20 (Homo sapiens, UniProt Q9NYL2); assay: Inhibition of full-length human ZAK using MBP as substrate in presence off ATP by competitive binding assay
Mitogen-activated protein kinase kinase kinase 20, sequence (Q9NYL2 whole entry): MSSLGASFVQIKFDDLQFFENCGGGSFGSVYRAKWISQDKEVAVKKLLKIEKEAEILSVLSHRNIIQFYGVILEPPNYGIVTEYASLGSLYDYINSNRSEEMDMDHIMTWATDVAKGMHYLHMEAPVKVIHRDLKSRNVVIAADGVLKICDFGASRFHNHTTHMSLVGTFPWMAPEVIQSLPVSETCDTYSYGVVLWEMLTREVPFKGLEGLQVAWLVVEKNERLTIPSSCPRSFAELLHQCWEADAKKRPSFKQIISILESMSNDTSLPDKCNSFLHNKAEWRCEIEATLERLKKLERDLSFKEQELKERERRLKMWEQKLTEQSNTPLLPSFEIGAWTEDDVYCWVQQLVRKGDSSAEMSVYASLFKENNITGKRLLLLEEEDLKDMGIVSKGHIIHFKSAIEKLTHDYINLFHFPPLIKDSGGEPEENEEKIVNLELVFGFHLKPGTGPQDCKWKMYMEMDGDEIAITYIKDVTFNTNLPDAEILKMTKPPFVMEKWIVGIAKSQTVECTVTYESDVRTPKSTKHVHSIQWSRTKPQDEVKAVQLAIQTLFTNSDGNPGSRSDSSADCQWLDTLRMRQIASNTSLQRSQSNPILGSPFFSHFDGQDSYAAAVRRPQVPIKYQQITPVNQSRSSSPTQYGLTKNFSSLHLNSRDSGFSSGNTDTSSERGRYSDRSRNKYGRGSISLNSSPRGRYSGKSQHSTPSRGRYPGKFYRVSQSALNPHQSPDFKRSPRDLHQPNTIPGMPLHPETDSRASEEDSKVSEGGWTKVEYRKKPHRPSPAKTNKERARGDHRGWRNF

[7] = target: Serine/threonine-protein kinase SIK2 (Homo sapiens) (UniProt Q9H0K1); assay: Inhibition of recombinant human GST-tagged SIK2 assessed as downregulation of SIK2 phosphorylation at Ser358 incubated for 30 mins by Western blotting analysis
Serine/threonine-protein kinase SIK2 (Homo sapiens), sequence (Q9H0K1 whole entry, looked up): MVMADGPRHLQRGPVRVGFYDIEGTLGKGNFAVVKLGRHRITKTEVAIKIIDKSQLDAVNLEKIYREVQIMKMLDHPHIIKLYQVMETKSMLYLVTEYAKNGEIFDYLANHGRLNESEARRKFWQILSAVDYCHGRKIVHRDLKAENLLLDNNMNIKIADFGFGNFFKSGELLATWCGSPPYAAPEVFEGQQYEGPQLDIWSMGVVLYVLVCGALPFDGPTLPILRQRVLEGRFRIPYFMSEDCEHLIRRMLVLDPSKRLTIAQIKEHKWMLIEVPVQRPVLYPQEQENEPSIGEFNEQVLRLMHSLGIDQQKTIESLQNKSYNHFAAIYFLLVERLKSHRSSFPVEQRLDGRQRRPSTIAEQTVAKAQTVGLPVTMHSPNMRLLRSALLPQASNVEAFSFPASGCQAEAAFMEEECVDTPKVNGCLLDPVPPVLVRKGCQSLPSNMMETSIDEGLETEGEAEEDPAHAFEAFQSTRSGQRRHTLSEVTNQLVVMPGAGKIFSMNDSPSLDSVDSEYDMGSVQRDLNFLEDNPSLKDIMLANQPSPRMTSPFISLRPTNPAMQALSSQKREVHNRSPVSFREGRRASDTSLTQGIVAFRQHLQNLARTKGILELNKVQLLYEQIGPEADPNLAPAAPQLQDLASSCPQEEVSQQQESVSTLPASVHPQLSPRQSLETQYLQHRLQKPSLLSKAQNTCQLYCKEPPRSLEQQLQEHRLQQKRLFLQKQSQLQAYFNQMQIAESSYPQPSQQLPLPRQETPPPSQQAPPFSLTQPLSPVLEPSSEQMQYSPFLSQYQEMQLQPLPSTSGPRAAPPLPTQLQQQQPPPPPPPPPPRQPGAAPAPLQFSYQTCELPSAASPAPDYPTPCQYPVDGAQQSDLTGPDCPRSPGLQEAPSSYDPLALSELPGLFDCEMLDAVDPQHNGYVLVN

[8] = target: Serine/threonine-protein kinase SIK2 (Homo sapiens) (UniProt Q9H0K1); assay: Inhibition of recombinant human GST-tagged SIK2 assessed as downregulation of SIK2 phosphorylation at Ser358 a 5 uM incubated for 30 mins by Western blotting analysis
[9] = target: Serine/threonine-protein kinase SIK2 (Homo sapiens) (UniProt Q9H0K1); assay: Inhibition of SIK2 in human SK-OV-3 cells assessed as decrease in centrosome dissociation in G2 phase at 5 uM incubated for 48 hrs by immunofluorescence assay; format: cell-based
SK-OV-3 [10] = assay: Induction of cell cycle arrest in human SK-OV-3 cells assessed as accumulation of cells at G1 phase at 5 uM incubated for 24 hrs by flow cytometry (reference value: 34%); format: functional
SK-OV-3 [11] = assay: Induction of cell cycle arrest in human SK-OV-3 cells assessed as accumulation of cells at S phase at 5 uM incubated for 24 hrs by flow cytometry (reference value: 32%); format: functional
[12] = target: Serine/threonine-protein kinase SIK2 (Homo sapiens) (UniProt Q9H0K1); assay: Inhibition of SIK2 in human SK-OV-3 cells assessed as downregulation of AKT phosphorylation at Ser473 at 5 uM incubated for 48 hrs by Western blotting analysis; format: cell-based
HCT-116 [13] = assay: Cytotoxicity against human HCT-116 cells assessed as reduction in cell count at 1 uM incubated for >60 hrs by Hoechst-33342 staining high-content imaging analysis; format: toxicity, cell-based; conditions: hct-116, 60 h
HCT-116 [14] = assay: Cytotoxicity against human HCT-116 cells assessed as decrease in cell viability at 10 uM incubated for 24 hrs by Hoechst-33342 staining high-content imaging analysis; format: toxicity, cell-based; conditions: hct-116, 24 h
[15] = target: Serine/threonine-protein kinase SIK1 (Homo sapiens, UniProt P57059); assay: Inhibition of full length NanoLuc fused SIK1 (unknown origin) transfected in HEK293T cells using NanoBRET NanoGlo substrate incubated for 2 hrs in presence of tracer by NanoBRET assay; format: cell-based
Serine/threonine-protein kinase SIK1, sequence (P57059 whole entry, the tested form may be a part): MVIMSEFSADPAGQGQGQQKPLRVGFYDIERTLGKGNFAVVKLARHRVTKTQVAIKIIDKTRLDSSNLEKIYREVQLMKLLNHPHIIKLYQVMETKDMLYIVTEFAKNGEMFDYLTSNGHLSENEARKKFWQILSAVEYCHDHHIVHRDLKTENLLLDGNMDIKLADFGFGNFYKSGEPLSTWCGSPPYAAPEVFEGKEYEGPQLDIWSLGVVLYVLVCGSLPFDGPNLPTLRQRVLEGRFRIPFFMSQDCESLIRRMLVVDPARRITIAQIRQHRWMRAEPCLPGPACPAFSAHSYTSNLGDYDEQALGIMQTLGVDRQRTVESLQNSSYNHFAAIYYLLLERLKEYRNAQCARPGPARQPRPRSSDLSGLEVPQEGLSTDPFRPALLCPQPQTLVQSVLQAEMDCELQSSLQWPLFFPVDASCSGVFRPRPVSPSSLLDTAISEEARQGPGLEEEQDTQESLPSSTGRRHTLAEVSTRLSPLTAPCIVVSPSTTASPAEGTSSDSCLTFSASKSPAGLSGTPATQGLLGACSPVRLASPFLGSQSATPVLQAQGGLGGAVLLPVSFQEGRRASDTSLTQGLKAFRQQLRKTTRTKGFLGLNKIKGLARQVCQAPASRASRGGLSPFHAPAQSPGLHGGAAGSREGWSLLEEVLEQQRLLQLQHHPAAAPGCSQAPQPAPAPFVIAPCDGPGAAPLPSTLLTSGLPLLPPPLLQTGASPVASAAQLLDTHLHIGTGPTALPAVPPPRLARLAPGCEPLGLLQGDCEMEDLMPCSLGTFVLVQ

SK-OV-3 [16] = assay: Induction of cell cycle arrest in human SK-OV-3 cells assessed as accumulation of cells at G2 phase at 5 uM incubated for 24 hrs by flow cytometry (reference value: 24%); format: functional
HCT-116 [17] = assay: Cytotoxicity against human HCT-116 cells assessed as effect on cell viability at 1 uM incubated for 80 hrs by Hoechst-33342 staining high-content imaging analysis; format: toxicity, cell-based; conditions: hct-116, 80 h

Structure (SMILES)	ΔTm [1]	ΔTm [2]	ΔTm [3]	ΔTm [4]	ΔTm [5]	other results
CNc1ncc2cc(-c3cc(Br)ccc3Cl)c(=O)n(C[C@H]3OC[C@H](N)CO3)c2n1	1.7 °C	1.5 °C	0.8 °C	0.6 °C	0.6 °C	–
CNc1ncc2cc(-c3cc(Cl)ccc3Br)c(=O)n(CCCCN)c2n1	1.5 °C	1.4 °C	2 °C	1.8 °C	0.6 °C	–
CCCS(=O)(=O)Nc1ccc(F)c(C(=O)c2c[nH]c3ncc(-c4ccc(Cl)cc4)cc23)c1F [VEMURAFENIB]	–	–	–	–	–	IC50 [6]: 4 nM
CN[C@@H]1C[C@H]2O[C@@](C)([C@@H]1OC)n1c3ccccc3c3c4c(c5c6ccccc6n2c5c31)C(=O)NC4	–	–	–	–	6.7 °C	–
CNc1ncc2cc(-c3cc(F)c(-c4cccc(C)n4)cc3F)c(=O)n(CCCCN)c2n1	2.8 °C	5.2 °C	9.7 °C	7.6 °C	3.6 °C	–
CNc1ncc2cc(-c3cc(Br)ccc3Br)c(=O)n(CCCCN)c2n1	1.6 °C	1.4 °C	1.9 °C	1.5 °C	0.7 °C	–
CNc1ncc2cc(-c3ccc(-c4cccc(C)n4)cc3Cl)c(=O)n(C[C@H]3OC[C@H](N)CO3)c2n1	4.2 °C	–	8.5 °C	–	–	IC50 [15]: 33 nM
CNc1ncc2cc(-c3ccc(-c4ncccc4F)cc3Cl)c(=O)n(C[C@H]3OC[C@H](N)CO3)c2n1	1.8 °C	–	3.5 °C	2.7 °C	5.2 °C	inhibition [7]: Dose-Dependent Effect; inhibition [8]: Active; inhibition [9]: Active; Activity (SK-OV-3 [10]): 70%; Activity (SK-OV-3 [16]): 13%; Activity (SK-OV-3 [11]): 7%; inhibition [12]: Active; Activity (HCT-116 [17]): Non-Toxic; Activity (HCT-116 [14]): Toxic

More lines, main results first:

ΔTm [1]	ΔTm [2]	ΔTm [3]	ΔTm [4]	ΔTm [5]	Structure (SMILES)	other results
1.9 °C	2.5 °C	2.7 °C	2.2 °C	0 °C	CNc1ncc2cc(-c3cc(Br)ccc3Cl)c(=O)n(CCCCN)c2n1	–
0.9 °C	0.8 °C	0.2 °C	0.4 °C	0.2 °C	CNc1ncc2cc(-c3cc(C(F)(F)F)ccc3Cl)c(=O)n(CCCCN)c2n1	–
1.9 °C	2.2 °C	3.8 °C	2.6 °C	1.1 °C	CNc1ncc2cc(-c3ccccc3Cl)c(=O)n(CCCCN)c2n1	inhibition [7]: Dose-Dependent Effect; inhibition [8]: Active; inhibition [9]: Active; Activity (SK-OV-3 [10]): 58%; Activity (SK-OV-3 [11]): 6%; inhibition [12]: Active; Activity (HCT-116 [13]): Toxic; Activity (HCT-116 [14]): Toxic
1.6 °C	1.4 °C	1.9 °C	2 °C	0.7 °C	CNc1ncc2cc(-c3cc(Cl)ccc3Cl)c(=O)n(CCCCN)c2n1	–
